According to patent publication US20070244199A1 (priority 2006, published 2007):
In brackets after ≈: the same amount, converted by molar mass. Entries after “also recorded” stand apart in the source; their conditions may differ.

How the values were obtained:
[1] = tested on: M. bovis BCG; assay: microbe, parasite or virus in culture; assay type: cell-based, Mycobacterium bovis BCG; settings: for MIC: Mycobacterium tuberculosis variant bovis BCG, BCG, read-out: minimum inhibitory concentration (MIC)
[2] = tested on: M. avium subspecies paratuberculosis (PTB); assay: BACTEC inhibition of PTB (paratuberculosis); assay type: cell-based, Mycobacterium avium subspecies paratuberculosis; settings: for activity against PTB (BACTEC growth index over time): single agents at the highest concentration
Description: The MIC was defined as the lowest inhibitor concentration that yielded a growth index change less than that of the 1:100 control bottle. A modification of this protocol was used for MIC determinations of MAC and M. avium subspecies paratuberculosis (Parrish, 2004). Susceptibilities and MIC determinations of M. tuberculosis isolates to isoniazid, streptomycin, ethambutol, rifampin, and pyrazinamide were done using standard BACTEC methods (Siddiqi, 1992). All primary drugs were purchased from Becton Dickinson (Sparks, Md.).
The inhibition assay was performed essentially as described in Example 1 for TB and BCG. Briefly, PTB inoculum was standardized by use of “seed vials” of a suspension of microorganisms in supplemented media. The suspension was vortexed with glass beads and then 0.3 ml to 0.5 ml was introduced into individual supplemented BACTEC 12B vials. Vials were subsequently incubated at 37° C. and the GI recorded until reaching 999. At that time, 0.3 ml of the “seed vial” was introduced into test and compound containing vials. Vials were then read at 24-hour intervals and the rest of the procedure followed as for TB and BCG. The MIC determination was the same as for TB and BCG.

[3] = tested on: latent (hypoxic) mycobacteria; assay: Killing of latent (hypoxic) mycobacteria in vitro; assay type: cell-based
[4] = tested on: mycobacteria; assay: In vitro sterilizing model; assay type: cell-based
[5] = tested on: M. tuberculosis (H37Rv); assay: BACTEC radiometric MIC determination against M. tuberculosis; assay type: cell-based; settings: Mycobacterium tuberculosis, read-out: MIC against M.tb
[6] = Pro-drug decomposition at acid and physiologic pH; assay type: physicochemical
Method: At physiologic pH (or about 7.5), the molecule slowly breaks down (with a half-time of about 15 hours) to release DSA. This property would enhance the prolonged maintenance of plasma concentrations of the active drug. The MICs of these pro-drug molecules are 6.25 μg/ml (for the 10 carbon compound) and 12.5 μg/ml (for the 8 carbon compound).

[7] = agent alone at 1.5 μg/ml (FIG. 1, FIG. 2)
[8] = agent alone, DSA at 1/2, 1/4, or 1/8 of the MIC, NSA or OSA at the same concentrations as DSA (FIG. 1)
[9] = PTB strain #2, combination at 12.5 or 25.0 μg/ml each (FIG. 5)
[10] = PTB strain #4, combination at 12.5 or 25.0 μg/ml each (FIG. 6)
[11] = PTB strain #8, combination at 12.5 or 25.0 μg/ml each (FIG. 7)
[12] = PTB strain #13, combination at 12.5 or 25.0 μg/ml each (FIG. 8)
[13] = PTB strain #15, combination at 12.5 or 25.0 μg/ml each (FIG. 9)

| Structure (SMILES) | MIC [1] | inhibition of growth of M. bovis BCG cells [1, 7] | inhibition of growth of M. bovis BCG cells [1, 8] | activity against PTB (BACTEC growth index over time) [2, 9] | activity against PTB (BACTEC growth index over time) [2, 10] | activity against PTB (BACTEC growth index over time) [2, 11] | activity against PTB (BACTEC growth index over time) [2, 12] | activity against PTB (BACTEC growth index over time) [2, 13] | MIC, various strains of PTB ([2]; agent alone (FIGS. 4-9)) | killing of latent (hypoxic) mycobacteria in vitro [3] | activity in an in vitro sterilizing model [4] | MIC ([2]; Mycobacterium avium, agent alone (FIGS. 4-9), read-out: MIC, various strains of PTB) | MIC [5] | decomposition in acid pH ([6]; acid pH) | half-time of breakdown to release DSA ([6]; physiologic pH (or about 7.5)) |
| --- | --- | --- | --- | --- | --- | --- | --- | --- | --- | --- | --- | --- | --- | --- | --- |
| CCCCCCCCCS(=O)(=O)CC(N)=O [NSA, n-nonanesulphonylacetamide] | 3 µg/mL (≈ 12 µM) | ineffective | no effect | some activity | some activity | some activity | some activity | some activity | considerably higher |  |  |  |  |  |  |
| CCCCCCCCS(=O)(=O)CC(N)=O [OSA, n-octanesulphonylacetamide] | 6.25 µg/mL (≈ 26.6 µM) | ineffective | no effect | no activity | no activity | no activity | no activity | no activity | considerably higher |  |  |  |  |  |  |
| CCCCCCCCCCS(=O)(=O)CC(N)=O [DSA, n-decanesulphonylacetamide] | 1.5 µg/mL (≈ 5.69 µM) | some activity; also recorded: inhibit the growth | no effect | some activity | some activity | some activity |  | some activity |  | kill latent (hypoxic) mycobacteria | active | ≥ 25 µg/mL | ~1 µg/mL (≈ 3.8 µM) |  |  |
| CCCCCCCCCCS(=O)(=O)CC(=O)NCN1CCOCC1 [10 carbon compound] |  |  |  |  |  |  |  |  |  |  |  |  | 6.25 µg/mL (≈ 17.2 µM) | resists decomposition | about 15 hours |
